This is an account of results in patent US11020378B2, “Compounds, compositions and methods for treating insulin resistance” (UNIVERSITE PARIS DESCARTES, priority 2017, dated 2021).

The target in data set [1] is T1, IR-Grb14 interaction (Homo sapiens, UniProt P06213).
T1 construct: a vector encoding the insulin receptor fused to the luciferase (IR-Luc); made in house; host or cells: HEK293T (transfected); IR-Luc was partially purified on wheat germ lectin sepharose; Grb14-YFP was used as crude lysate
Description: IR-Luc/Grb14-YFP BRET technique in a cell-free system. The class given is binding. Here is the method:
Compounds according to the invention were experimentally assessed for their inhibitory effect on the IR-Grb14 interaction by a BRET technique in a cell-free system described briefly below.
On the one hand, HEK293T cells were transfected with a vector encoding the insulin receptor fused to the luciferase (IR-Luc). Before lysis, the cells transfected with IR-Luc were stimulated or not with 100 nM insulin for 10 minutes. The IR-Luc lysates were recovered and then purified on sepharose beads coupled with wheat germ lectin (WGL for Wheat Germ Lectin). The IR-Luc receptors were then eluted and then frozen in liquid nitrogen before being stored at −80° C. On the other hand, HEK293T cells were transfected either with a vector encoding the Grb14 protein fused to the YFP (Grb14-YFP), or with the empty plasmid pcDNA3. The cells transfected with Grb14-YFP or with the empty plasmid pcDNA3 were lysed 48 h after transfection. After centrifugation, the lysates are recovered and frozen at −80° C.
The insulin receptors (IR-Luc) partially purified from cells stimulated or not with insulin were incubated for 20 minutes with the inhibitor compounds according to the invention suspended in DMSO. The cellular extracts from cells transfected with Grb14-YFP (or the empty plasmid pcDNA3) were then added and then after 40 minutes of incubation, coelenterazine was added and BRET reading was initiated. The results are expressed as a percentage of the BRET signal obtained in the presence of the molecules tested compared to the BRET signal of the DMSO control.
A general note: BRET reads energy transfer from a luciferase to a nearby fluorophore.

The target in data set [2] is T1, IR-Grb14 interaction. The data set is described as follows: Co-immunoprecipitation of IR-Luc with Grb14-YFP in a cell-free system (Western blot). The class given is binding. As to conditions: for reduction of the amount of co-precipitated IR-Luc: dose series, results not shown. Here is the method:
The inhibitory effect of the compounds according to the invention on the IR-Grb14 interaction has been confirmed in co-immunoprecipitation experiments in a cell-free system. IR-Luc extracts, stimulated or not by insulin, […] before being incubated with the cellular extract containing the fusion protein Grb14-YFP for 40 minutes. Immunoprecipitation against YFP allows to analyze by Western blot the amount of receptor that has remained associated with the Grb14 protein.

A further data set deals with T2, IRTK-Grb14 interaction (Homo sapiens, UniProt P06213).
T2 construct: a construct bearing only the tyrosine kinase domain of the luciferase-fused receptor (IRTK48-RLuc); expressed in transfected cells; host or cells: HEK 293T
Description: Co-immunoprecipitation of IRTK48-RLuc with Grb14-YFP in co-transfected HEK 293T cells. The class given is cell-based. As to conditions: 50 μM; 4 hours; no insulin. Here is the method: HEK 293T cells co-transfected with a construct bearing only the tyrosine kinase domain of the luciferase-fused receptor (IRTK48-RLuc) and the Grb14 protein fused to YFP were incubated for 4 hours in the presence of compounds according to the invention. In the absence of α subunits, the tyrosine kinase domain of the insulin receptor spontaneously autophosphorylates, so it is not necessary to add insulin to stimulate the IRTK-Grb14 interaction.

In another data set the test system is HEK293T cells. Description: Growth and survival of HEK293T cells (resazurin fluorescence, 72 h). The following applies: 0.1% or 10% serum. The class given is cell-based. The method, then: In order to study the effect of the compound of Formula (Ia) on cell growth and survival, HEK293T cells were cultured for 72 h at different serum concentrations (0.1%, 1%, 10%), in the absence or presence of compounds of Formula (Ia) (50 or 100 μM). The fluorescence of the cells was measured before and after treatment using a reagent containing resazurin. Since the intensity of fluorescence is correlated with the number of living cells, cell growth is estimated by relating the fluorescence measured at 72 h of treatment to that measured at t0. The presence of serum promotes cell growth. Thus, after 72 h, an increase in the cell population of 7 times at 0.1% of serum and of 10 times at 1 or 10% of serum is observed.
A general note: Resazurin is reduced to fluorescent resorufin, in cell work by metabolically active cells.

Data set [3] can be described thus: Repeat-dose toxicity study in C57Bl/6J mice. The class given is in vivo. Here is the method: A repeat-dose toxicity study was also conducted in C57Bl/6J mice (12 males, 8 weeks old). Mice were treated daily either by gavage with 30 mg/kg/day of compound of Formula (Ia) diluted in 0.5% carboxymethylcellulose; or by intraperitoneal injection with 30 mg/kg/day of compound of Formula (Ia) diluted in DMSO, or with DMSO alone, for a period of 15 days.

For the next data set, the system named is PI3K/Akt pathway. The data set is described as follows: Luc-Akt-PH/YFP-membrane BRET in HEK293T cells (recruitment of Akt to the membrane). The class given is cell-based. The following applies: for BRET delta (recruitment of the Akt protein to the membrane): 50 μM. The text has this: To measure the activity of the PI3-kinase pathway by the BRET technique, HEK293T cells are transfected with plasmids allowing, on the one hand, the expression of the PH (Pleckstrin Homology) domain of the Akt protein which has been fused to the luciferase and, on the other hand, a membrane-addressing sequence which has been fused to the YFP protein. When the PH domain of Akt is recruited to the membrane by the PIP3s, an energy transfer between the luciferase that is coupled to the PH domain of Akt and the membrane YFP protein takes place. The measured BRET signal is a control of the production of PIP3s at the membrane and is a reflection of the activation of the PI-3-kinase/Akt pathway in real time on cells.

Data set [4] relates to PEPCK and G6Pase expression. The data set is described as follows: Expression of neoglucogenesis genes in hepatocytes in primary culture (RT-qPCR). The class given is cell-based, mice. As to conditions: 50 μM; glucagon 10 nM; absence of insulin; 8 h. Here is the method: FIG. 6, the effect of the compound of Formula (Ia) according to the invention (black bars) on the expression of insulin target genes, PEPCK (FIG. 6A) and G6Pase (FIG. 6B), involved in the neoglucogenesis pathway. Hepatocytes in primary culture are cultured for 8 h in the presence of compounds of Formula (Ia) (50 μM), insulin (1 nM) and glucagon (pre-incubation 1 h at 10 nM). The relative quantification of mRNAs is performed by RT-qPCR. The values are related to the quantification of the 18S gene in the same sample in order to normalize the results. The results are the average of 3 to 5 independent experiments (*p<0.05, **p<0.01, by Anova followed by a Newman-Keuls test).
To study the inhibitory effect of insulin on neoglucogenesis gene expression, hepatocytes from mice in primary culture were pre-incubated with 10 nM glucagon.
(In general: In qPCR the cycle at which signal appears reflects the starting amount.)

Where [5] appears, read: absence of insulin, results not shown.

T1 sequence (P06213 763-1382 limits assumed): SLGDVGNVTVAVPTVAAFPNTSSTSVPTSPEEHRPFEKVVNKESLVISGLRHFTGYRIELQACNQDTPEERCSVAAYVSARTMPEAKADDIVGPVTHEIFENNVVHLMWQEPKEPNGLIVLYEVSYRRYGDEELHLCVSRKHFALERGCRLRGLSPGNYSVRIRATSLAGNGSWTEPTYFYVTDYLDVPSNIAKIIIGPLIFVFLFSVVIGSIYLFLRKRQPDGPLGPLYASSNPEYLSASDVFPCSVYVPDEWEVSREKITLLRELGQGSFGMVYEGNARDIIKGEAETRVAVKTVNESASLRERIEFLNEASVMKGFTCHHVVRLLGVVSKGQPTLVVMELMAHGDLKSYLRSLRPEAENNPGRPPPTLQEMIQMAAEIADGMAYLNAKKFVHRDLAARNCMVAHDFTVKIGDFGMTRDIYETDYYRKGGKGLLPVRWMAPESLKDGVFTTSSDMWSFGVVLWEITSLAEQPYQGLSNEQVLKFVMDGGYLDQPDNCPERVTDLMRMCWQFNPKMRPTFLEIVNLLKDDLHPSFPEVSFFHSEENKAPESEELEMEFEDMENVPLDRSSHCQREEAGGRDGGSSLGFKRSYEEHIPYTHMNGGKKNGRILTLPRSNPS
T1 sequence (P06213 28-758 partner limits assumed): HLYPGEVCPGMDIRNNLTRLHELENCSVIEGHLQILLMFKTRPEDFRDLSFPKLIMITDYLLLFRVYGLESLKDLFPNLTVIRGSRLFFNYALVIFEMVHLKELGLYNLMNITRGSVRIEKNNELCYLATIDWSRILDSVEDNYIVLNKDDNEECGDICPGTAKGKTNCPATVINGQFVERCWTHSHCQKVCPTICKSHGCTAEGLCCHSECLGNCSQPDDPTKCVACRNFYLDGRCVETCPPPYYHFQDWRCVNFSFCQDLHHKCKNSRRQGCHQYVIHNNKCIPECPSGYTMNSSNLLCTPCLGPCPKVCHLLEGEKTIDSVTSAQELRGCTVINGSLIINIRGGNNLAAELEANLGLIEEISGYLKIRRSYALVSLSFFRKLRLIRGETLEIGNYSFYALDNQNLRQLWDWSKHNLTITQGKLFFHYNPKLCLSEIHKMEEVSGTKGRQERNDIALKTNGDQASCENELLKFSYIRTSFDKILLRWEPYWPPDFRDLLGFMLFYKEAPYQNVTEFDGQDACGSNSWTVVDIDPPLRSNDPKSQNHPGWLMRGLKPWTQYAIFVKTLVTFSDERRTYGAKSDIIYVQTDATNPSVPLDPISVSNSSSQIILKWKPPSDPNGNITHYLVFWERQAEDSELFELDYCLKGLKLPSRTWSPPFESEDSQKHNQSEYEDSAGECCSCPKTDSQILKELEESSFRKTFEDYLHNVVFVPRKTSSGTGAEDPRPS
T2 sequence (P06213 1023-1298 limits assumed): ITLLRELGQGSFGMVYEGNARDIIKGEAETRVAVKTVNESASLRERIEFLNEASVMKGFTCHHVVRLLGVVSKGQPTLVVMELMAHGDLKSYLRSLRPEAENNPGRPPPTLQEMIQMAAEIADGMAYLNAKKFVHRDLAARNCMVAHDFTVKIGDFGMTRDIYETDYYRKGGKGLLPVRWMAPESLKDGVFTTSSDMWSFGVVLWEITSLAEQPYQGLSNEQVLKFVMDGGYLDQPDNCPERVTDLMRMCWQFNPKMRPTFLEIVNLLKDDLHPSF

For `Cc1ccc(/C=C/C(=O)Nc2ccc(S(=O)(=O)Nc3onc(C)c3C)cc2)o1` [Ia], the remaining activity at 50 µM at IR-Grb14 interaction [1] (50 μM, insulin stimulation (100 nM), read-out: % BRET signal/DMSO control) is 39%. Further, the “decrease in the BRET signal between the insulin receptor and the Grb14 protein” value on IR-Grb14 interaction [1] (50 μM, with insulin stimulation) amounted to 60%. Also, the “decrease in the BRET signal” value at IR-Grb14 interaction [1] (in the absence of stimulation with insulin) turned out to be 50%. Also, the “reduction of the amount of co-precipitated IR-Luc” value is given as 20% at IR-Grb14 interaction [2] (25 μM) and 50% on IR-Grb14 interaction [2] (50 μM). The inhibition at 50 µM at IR-Grb14 interaction [2] (50 μM, in the presence of insulin, read-out: reduction of the amount of insulin receptors associated with the Grb14 protein) turned out to be 60%. The “reduction of the amount of tyrosine kinase domain of the insulin receptor co-immunoprecipitated with the Grb14 protein” value on IRTK-Grb14 interaction was 75%. For the same molecule, the cell growth rate result with HEK293T cells (50 μM) and with HEK293T cells (100 μM) was “does not alter” each time. Further, in data set [3] (30 mg/kg/day by gavage or intraperitoneal injection), the liver appearance result was “no difference”. The weight gain entry in data set [3] (30 mg/kg/day by gavage or intraperitoneal injection, after 12 days of treatment) was “no difference”. Also, the “blood glucose level measured in the post-absorptive state” value in data set [3] (30 mg/kg/day, regardless of the administration mode) is on record as “decrease”. Also, the “toxic effect (overall conclusion)” value in data set [3] (HEK293T cells and repeat-dose mouse study) is listed as “no detectable toxic effect”. Besides, the “BRET delta (recruitment of the Akt protein to the membrane)” value in the data set on PI3K/Akt pathway (absence of insulin) is on record as “about 86”; with PI3K/Akt pathway (presence of 5 nM insulin), “about 121”. The “concentration at which the increase in the BRET signal / PI3K/Akt activation is significant” value in the data set with PI3K/Akt pathway (setting [5]) was determined as 10 µM. Besides, the “concentration from which the effect on the BRET signal is detectable” value in the data set on PI3K/Akt pathway (setting [5]) is 5 µM. In addition, in the data set on PI3K/Akt pathway (cells pre-incubated 1 h with 25 μM AG1024, Ia 50 μM, insulin 5 nM), the “effect on the recruitment of the Akt protein to the membrane after AG1024” value is “no longer have any effect”. For the same molecule, the BRET delta in the data set on PI3K/Akt pathway (without insulin) is given as 86 (+/−41). Further, the “decrease in glucagon-induced G6Pase expression” value in data set [4] is given as “about 20%”. For the same molecule, in data set [4], the “decrease in glucagon-induced PEPCK expression” value is reported as “about 20%”.
